Entries after “also recorded” stand apart in the source; their conditions may differ. Structures can show the parent of a compound that is named as a salt. Where two headings read alike, the source gives them in different places.
System: pediatric patients with recurrent or refractory solid and CNS tumors
[1] = Dose Level 1, 80 mg/m^2, Part A, 6 evaluable
[2] = Dose Level 2, 100 mg/m^2, Part A, 5 evaluable
[3] = Dose Level 3, 125 mg/m^2, Part A, 4 evaluable
[4] = Dose Level 4, 150 mg/m^2, Part A, 5 evaluable
[5] = Dose Level 4, 150 mg/m^2, Part PK (expansion cohort), 5 evaluable
[6] = cycle 1, All Dose Levels (N=25)
[7] = cycle 1, Dose Level 1 (N=6), 80 mg/m^2
[8] = cycle 1, Dose Level 2 (N=5), 100 mg/m^2

`COc1cccc(OCCCN)c1-c1cc(Nc2cnc(C#N)cn2)n[nH]1` [prexasertib, Prexasertib mesylate monohydrate] was tested, and the “Grade 4 neutropenia, patients” value (22/25 patients) was 88%, the “No. of Patients with Cycle 1 DLTs” value [1] was 0 and the “No. of Patients with Later-Cycle DLTs” value [1] was 0. For the same compound, the “No. of Patients with Cycle 1 DLTs” value [2] was 0, the “No. of Patients with Later-Cycle DLTs” value [2] was 0 and the “No. of Patients with Cycle 1 DLTs” value [3] was 0. For the same compound, the “No. of Patients with Later-Cycle DLTs” value [3] was 0, the “No. of Patients with Cycle 1 DLTs” value [4] was 0 and the “No. of Patients with Later-Cycle DLTs” value [4] was 0. For the same compound, the “No. of Patients with Cycle 1 DLTs” value [5] was 0, the “No. of Patients with Later-Cycle DLTs” value [5] was 0 and the “maximum tolerated dose (MTD)” value (IV days 1 and 15 of 28-day cycle, up to 150 mg/m^2) was “not defined; also recorded: not reached; also recorded: did not reach”. The “Alanine aminotransferase increased, All” value [6] was 5 (20) No. (%), the “Alanine aminotransferase increased, ≥ Grade 3” value [6] was 1 (4) No. (%) and the “Anemia, All” value [6] was 19 (76) No. (%). For the same compound, the “Anemia, ≥ Grade 3” value [6] was 3 (12) No. (%), the “Anorexia, All” value [6] was 3 (12) No. (%) and the “Anorexia, ≥ Grade 3” value [6] was 0 (0) No. (%). The “Aspartate aminotransferase increased, All” value [6] was 4 (16) No. (%), the “Aspartate aminotransferase increased, ≥ Grade 3” value [6] was 0 (0) No. (%) and the “Diarrhea, All” value [6] was 4 (16) No. (%). For the same compound, the “Diarrhea, ≥ Grade 3” value [6] was 0 (0) No. (%), the “Electrocardiogram QT corrected interval prolonged, All” value [6] was 9 (36) No. (%) and the “Electrocardiogram QT corrected interval prolonged, ≥ Grade 3” value [6] was 0 (0) No. (%). For the same compound, the “Fatigue, All” value [6] was 6 (24) No. (%), the “Fatigue, ≥ Grade 3” value [6] was 0 (0) No. (%) and the “Headache, All” value [6] was 3 (12) No. (%). The “Headache, ≥ Grade 3” value [6] was 0 (0) No. (%), the “Hypokalemia, All” value [6] was 5 (20) No. (%) and the “Hypokalemia, ≥ Grade 3” value [6] was 0 (0) No. (%). The “Hypophosphatemia, All” value [6] was 4 (16) No. (%), the “Hypophosphatemia, ≥ Grade 3” value [6] was 0 (0) No. (%) and the “Infusion-related reaction, All” value [6] was 3 (12) No. (%). The “Infusion-related reaction, ≥ Grade 3” value [6] was 0 (0) No. (%), the “Lymphocyte count decreased, All” value [6] was 12 (48) No. (%) and the “Lymphocyte count decreased, ≥ Grade 3” value [6] was 6 (24) No. (%). For the same compound, the “Myalgia, All” value [6] was 3 (12) No. (%), the “Myalgia, ≥ Grade 3” value [6] was 0 (0) No. (%) and the “Nausea, All” value [6] was 5 (20) No. (%). For the same compound, the “Nausea, ≥ Grade 3” value [6] was 0 (0) No. (%), the “Neutrophil count decreased, All” value [6] was 25 (100) No. (%) and the “Neutrophil count decreased, ≥ Grade 3” value [6] was 25 (100) No. (%). For the same compound, the “Platelet count decreased, All” value [6] was 21 (84) No. (%), the “Platelet count decreased, ≥ Grade 3” value [6] was 6 (24) No. (%) and the “Vomiting, All” value [6] was 6 (24) No. (%). The “Vomiting, ≥ Grade 3” value [6] was 0 (0) No. (%), the “White blood cell decreased, All” value [6] was 24 (96) No. (%) and the “White blood cell decreased, ≥ Grade 3” value [6] was 17 (68) No. (%). The “Alanine aminotransferase increased, All” value [7] was 2 (33) No. (%), the “Alanine aminotransferase increased, ≥ Grade 3” value [7] was 0 (0) No. (%) and the “Anemia, All” value [7] was 5 (83) No. (%). For the same compound, the “Anemia, ≥ Grade 3” value [7] was 0 (0) No. (%), the “Anorexia, All” value [7] was 2 (33) No. (%) and the “Anorexia, ≥ Grade 3” value [7] was 0 (0) No. (%). For the same compound, the “Aspartate aminotransferase increased, All” value [7] was 0 (0) No. (%), the “Aspartate aminotransferase increased, ≥ Grade 3” value [7] was 0 (0) No. (%) and the “Diarrhea, All” value [7] was 2 (33) No. (%). The “Diarrhea, ≥ Grade 3” value [7] was 0 (0) No. (%), the “Electrocardiogram QT corrected interval prolonged, All” value [7] was 2 (33) No. (%) and the “Electrocardiogram QT corrected interval prolonged, ≥ Grade 3” value [7] was 0 (0) No. (%). The “Fatigue, All” value [7] was 0 (0) No. (%), the “Fatigue, ≥ Grade 3” value [7] was 0 (0) No. (%) and the “Headache, All” value [7] was 0 (0) No. (%). For the same compound, the “Headache, ≥ Grade 3” value [7] was 0 (0) No. (%), the “Hypokalemia, All” value [7] was 0 (0) No. (%) and the “Hypokalemia, ≥ Grade 3” value [7] was 0 (0) No. (%). The “Hypophosphatemia, All” value [7] was 1 (17) No. (%), the “Hypophosphatemia, ≥ Grade 3” value [7] was 0 (0) No. (%) and the “Infusion-related reaction, All” value [7] was 1 (17) No. (%). For the same compound, the “Infusion-related reaction, ≥ Grade 3” value [7] was 0 (0) No. (%), the “Lymphocyte count decreased, All” value [7] was 3 (50) No. (%) and the “Lymphocyte count decreased, ≥ Grade 3” value [7] was 2 (33) No. (%). For the same compound, the “Myalgia, All” value [7] was 0 (0) No. (%), the “Myalgia, ≥ Grade 3” value [7] was 0 (0) No. (%) and the “Nausea, All” value [7] was 1 (17) No. (%). The “Nausea, ≥ Grade 3” value [7] was 0 (0) No. (%), the “Neutrophil count decreased, All” value [7] was 6 (100) No. (%) and the “Neutrophil count decreased, ≥ Grade 3” value [7] was 6 (100) No. (%). For the same compound, the “Platelet count decreased, All” value [7] was 4 (67) No. (%), the “Platelet count decreased, ≥ Grade 3” value [7] was 1 (17) No. (%) and the “Vomiting, All” value [7] was 1 (17) No. (%). For the same compound, the “Vomiting, ≥ Grade 3” value [7] was 0 (0) No. (%), the “White blood cell decreased, All” value [7] was 5 (83) No. (%) and the “White blood cell decreased, ≥ Grade 3” value [7] was 4 (67) No. (%). The “Alanine aminotransferase increased, All” value [8] was 2 (40) No. (%), the “Alanine aminotransferase increased, ≥ Grade 3” value [8] was 1 (20) No. (%) and the “Anemia, All” value [8] was 3 (60) No. (%). For the same compound, the “Anemia, ≥ Grade 3” value [8] was 1 (20) No. (%), the “Anorexia, All” value [8] was 0 (0) No. (%) and the “Anorexia, ≥ Grade 3” value [8] was 0 (0) No. (%). For the same compound, the “Aspartate aminotransferase increased, All” value [8] was 3 (60) No. (%), the “Aspartate aminotransferase increased, ≥ Grade 3” value [8] was 0 (0) No. (%) and the “Diarrhea, All” value [8] was 1 (20) No. (%). The “Diarrhea, ≥ Grade 3” value [8] was 0 (0) No. (%), the “Electrocardiogram QT corrected interval prolonged, All” value [8] was 1 (20) No. (%) and the “Electrocardiogram QT corrected interval prolonged, ≥ Grade 3” value [8] was 0 (0) No. (%). For the same compound, the “Fatigue, All” value [8] was 2 (40) No. (%), the “Fatigue, ≥ Grade 3” value [8] was 0 (0) No. (%) and the “Headache, All” value [8] was 0 (0) No. (%).
